# Measurements taken from patent publication US10662229B2, “Spider venom peptides and methods of use for modulating sodium channels” (priority 2016, dated 2020).
# “Also recorded” adds a separate entry of the source.
# Key:
# [1] = target: T1, hNav1.1 (Homo sapiens, UniProt P35498); assay: FLIPR membrane potential assay, hNav1.1; type: cell-based
# T1 construct: host or cells: HEK293
# In short: (§1)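 Cells plated 48 h before assay, then dye-loaded (red membrane potential dye, 1× in PSS, 30 min, 37° C), then agonist added and membrane potential tracked on FLIPR^TETRA for 300 s. HEK293 stable lines expressing each hNav subtype.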
# [2] = target: T2, hNav1.8 (Homo sapiens, UniProt Q9Y5Y9); assay: FLIPR membrane potential assay, hNav1.8; type: cell-based
# T2 construct: host or cells: HEK293
# In short: as §1
# [3] = target: T3, hNav1.6 (Homo sapiens, UniProt Q9UQD0); assay: Automated patch clamping (QPatch-16), hNav1.6; type: cell-based; details: mean±SEM
# T3 construct: host or cells: HEK293
# Experimental: (§2) HEK293 cells stably expressing hNav1.1-1.7 or CHO cells stably expressing hNav1.8 (as described in Example 3 above) were cultured in a T-175 flask in selection antibiotic-free media at 37° C. Cells were grown to 70-80% confluence and harvested using Detachin (Bio-Scientific, NSW, Australia) at 37° C. for 2 min. Dissociated cells were then resuspended in Ex-Cell ACF CHO Medium with HEPES (25 mM; Sigma-Aldrich Co.) and allowed to recover on the QStirrer for 30 min.
# (§3) The extracellular solution contained in mM: NaCl 145, KCl 4, CaCl2 2, MgCl2 1, HEPES 10 and glucose 10. The pH was adjusted to 7.4 with NaOH and osmolarity was adjusted with sucrose to 305 mOsm. The intracellular solution contained in mM: CsF 140, ethylene glycol tetraacetic acid (EGTA)/CsOH 1/5, HEPES 10 and NaCl 10. The pH was adjusted to 7.3 with CsOH and osmolarity adjusted with sucrose to 320 mOsm. […]
# (§4) The current-voltage (IV) curve was constructed with a holding potential of −80 mV followed by a pre-pulse of −100 mV for 50 ms and a series of 50 ms step pulses that ranged from −80 to 50 mV in 5 mV increments before returning to a holding potential of −80 mV. Voltage-dependence of activation was determined as normalized Nav conductance (GNa) using: GNa=INa/(Vmemb−Vrev), where Vmemb is the membrane potential and Vrev is the reversal potential for each cell. […]
# [4] = target: T4, hNav1.7 (Homo sapiens, UniProt Q15858); assay: Automated patch clamping (QPatch-16), hNav1.7; type: cell-based; details: for voltage dependence of activation, V50: control −25.1±0.5 mV
# T4 construct: host or cells: HEK293
# Experimental: as §2
# The extracellular solution contained in mM: NaCl 145, KCl 4, CaCl2 2, MgCl2 1, HEPES 10 and glucose 10. The pH was adjusted to 7.4 with NaOH and osmolarity was adjusted with sucrose to 305 mOsm. The intracellular solution contained in mM: CsF 140, ethylene glycol tetraacetic acid (EGTA)/CsOH 1/5, HEPES 10 and NaCl 10. The pH was adjusted to 7.3 with CsOH and osmolarity adjusted with sucrose to 320 mOsm.
# Whole-cell patch-clamp experiments were performed on a QPatch-16 automated electrophysiology platform (Sophion Bioscience, Ballerup, Denmark) using 16-channel planar patch chip plates (QPlates; Sophion Bioscience) with a patch hole diameter of 1 μm and resistance of 2±0.02 MΩ with the following parameters: positioning pressure −60 mbar, minimum seal resistance 0.1 GΩ, holding potential −100 mV, holding pressure −20 mbar.
# Whole-cell currents were filtered at 5 kHz and acquired at 25 kHz.
# The current-voltage (IV) curve was constructed with a holding potential of −80 mV followed by a pre-pulse of −100 mV for 50 ms and a series of 50 ms step pulses that ranged from −80 to 50 mV in 5 mV increments before returning to a holding potential of −80 mV. Voltage-dependence of activation was determined as normalized Nav conductance (GNa) using: GNa=INa/(Vmemb−Vrev), where Vmemb is the membrane potential and Vrev is the reversal potential for each cell. The voltage of activation data was fitted to a Boltzmann sigmoidal curve using GraphPad Prism, version 6.0.
# [5] = target: T2, hNav1.8; assay: Automated patch clamping (QPatch-16), hNav1.8; type: cell-based
# Experimental: as §2, §3, §4
# [6] = system: OD1-induced spontaneous pain behaviours in mice; assay: OD1 model of spontaneous pain behaviours; type: in vivo
# Experimental: For behavioural assessment adult male C57BL/6J mice aged 6-8 weeks were used. Animals were housed in groups of 3 or 4 per cage, under 12 h light-dark cycles and had standard rodent chow and water ad libitum.
# OD1 was diluted in phosphate-buffered saline/0.1% BSA (300 nM) and administered by shallow subcutaneous (intraplantar) injection to the left hind paw of mice in a volume of 40 μL under light isoflurane (3%) anesthesia. Mice were then placed individually into polyvinyl boxes (10×10×10 cm), and spontaneous pain behavior (licks and flinches) was counted by an investigator unaware of the treatments received from video recordings for 10 min post-injection.
# T4 sequence (Q15858 whole entry): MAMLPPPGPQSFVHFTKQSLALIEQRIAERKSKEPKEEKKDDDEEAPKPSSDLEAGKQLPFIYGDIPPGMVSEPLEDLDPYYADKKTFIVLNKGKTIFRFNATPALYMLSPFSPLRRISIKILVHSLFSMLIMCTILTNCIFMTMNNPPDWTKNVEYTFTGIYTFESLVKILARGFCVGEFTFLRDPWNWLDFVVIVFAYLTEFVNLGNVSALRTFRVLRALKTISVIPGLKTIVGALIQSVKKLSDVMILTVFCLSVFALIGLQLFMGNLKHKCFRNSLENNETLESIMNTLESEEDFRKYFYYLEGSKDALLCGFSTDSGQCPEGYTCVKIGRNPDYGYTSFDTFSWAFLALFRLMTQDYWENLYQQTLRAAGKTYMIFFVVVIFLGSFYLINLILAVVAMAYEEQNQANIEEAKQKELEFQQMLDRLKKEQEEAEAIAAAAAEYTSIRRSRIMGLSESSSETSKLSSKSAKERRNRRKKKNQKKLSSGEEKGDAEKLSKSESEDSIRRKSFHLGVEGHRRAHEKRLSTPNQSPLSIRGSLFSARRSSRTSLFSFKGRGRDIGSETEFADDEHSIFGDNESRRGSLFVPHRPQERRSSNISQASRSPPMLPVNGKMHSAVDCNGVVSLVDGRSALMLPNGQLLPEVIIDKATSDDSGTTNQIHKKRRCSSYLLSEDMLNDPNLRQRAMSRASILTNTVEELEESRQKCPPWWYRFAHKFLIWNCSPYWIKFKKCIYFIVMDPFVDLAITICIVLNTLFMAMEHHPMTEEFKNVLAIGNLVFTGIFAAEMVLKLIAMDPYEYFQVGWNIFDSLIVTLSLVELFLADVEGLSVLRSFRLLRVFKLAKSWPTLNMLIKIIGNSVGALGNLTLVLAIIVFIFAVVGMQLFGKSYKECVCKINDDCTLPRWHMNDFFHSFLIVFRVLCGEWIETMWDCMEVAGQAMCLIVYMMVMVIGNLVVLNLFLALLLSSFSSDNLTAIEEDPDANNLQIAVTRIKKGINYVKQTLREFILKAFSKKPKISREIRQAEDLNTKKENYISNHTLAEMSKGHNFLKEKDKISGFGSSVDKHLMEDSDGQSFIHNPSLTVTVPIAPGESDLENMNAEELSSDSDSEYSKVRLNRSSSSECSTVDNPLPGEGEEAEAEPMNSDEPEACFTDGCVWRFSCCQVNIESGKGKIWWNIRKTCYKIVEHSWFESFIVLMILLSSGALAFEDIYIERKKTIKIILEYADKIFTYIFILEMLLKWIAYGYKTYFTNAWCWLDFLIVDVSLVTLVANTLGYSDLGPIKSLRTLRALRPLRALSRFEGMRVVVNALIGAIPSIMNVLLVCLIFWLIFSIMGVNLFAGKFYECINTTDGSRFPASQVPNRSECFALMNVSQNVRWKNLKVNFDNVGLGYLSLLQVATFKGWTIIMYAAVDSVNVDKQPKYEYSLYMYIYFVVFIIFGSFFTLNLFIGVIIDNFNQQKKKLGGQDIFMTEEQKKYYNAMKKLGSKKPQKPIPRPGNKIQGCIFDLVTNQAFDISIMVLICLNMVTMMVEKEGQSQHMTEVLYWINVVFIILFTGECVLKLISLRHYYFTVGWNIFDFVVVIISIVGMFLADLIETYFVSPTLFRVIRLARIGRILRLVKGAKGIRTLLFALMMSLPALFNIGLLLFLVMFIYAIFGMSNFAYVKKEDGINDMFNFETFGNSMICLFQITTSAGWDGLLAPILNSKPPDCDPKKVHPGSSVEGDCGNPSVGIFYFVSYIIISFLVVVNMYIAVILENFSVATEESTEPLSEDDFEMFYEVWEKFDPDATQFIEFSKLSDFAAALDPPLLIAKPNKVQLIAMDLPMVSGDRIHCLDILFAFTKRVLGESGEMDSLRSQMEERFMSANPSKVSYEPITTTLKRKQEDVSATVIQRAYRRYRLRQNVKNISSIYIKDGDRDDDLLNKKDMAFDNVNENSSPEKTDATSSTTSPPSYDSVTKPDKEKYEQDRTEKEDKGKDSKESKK
# T2 sequence (Q9Y5Y9 whole entry): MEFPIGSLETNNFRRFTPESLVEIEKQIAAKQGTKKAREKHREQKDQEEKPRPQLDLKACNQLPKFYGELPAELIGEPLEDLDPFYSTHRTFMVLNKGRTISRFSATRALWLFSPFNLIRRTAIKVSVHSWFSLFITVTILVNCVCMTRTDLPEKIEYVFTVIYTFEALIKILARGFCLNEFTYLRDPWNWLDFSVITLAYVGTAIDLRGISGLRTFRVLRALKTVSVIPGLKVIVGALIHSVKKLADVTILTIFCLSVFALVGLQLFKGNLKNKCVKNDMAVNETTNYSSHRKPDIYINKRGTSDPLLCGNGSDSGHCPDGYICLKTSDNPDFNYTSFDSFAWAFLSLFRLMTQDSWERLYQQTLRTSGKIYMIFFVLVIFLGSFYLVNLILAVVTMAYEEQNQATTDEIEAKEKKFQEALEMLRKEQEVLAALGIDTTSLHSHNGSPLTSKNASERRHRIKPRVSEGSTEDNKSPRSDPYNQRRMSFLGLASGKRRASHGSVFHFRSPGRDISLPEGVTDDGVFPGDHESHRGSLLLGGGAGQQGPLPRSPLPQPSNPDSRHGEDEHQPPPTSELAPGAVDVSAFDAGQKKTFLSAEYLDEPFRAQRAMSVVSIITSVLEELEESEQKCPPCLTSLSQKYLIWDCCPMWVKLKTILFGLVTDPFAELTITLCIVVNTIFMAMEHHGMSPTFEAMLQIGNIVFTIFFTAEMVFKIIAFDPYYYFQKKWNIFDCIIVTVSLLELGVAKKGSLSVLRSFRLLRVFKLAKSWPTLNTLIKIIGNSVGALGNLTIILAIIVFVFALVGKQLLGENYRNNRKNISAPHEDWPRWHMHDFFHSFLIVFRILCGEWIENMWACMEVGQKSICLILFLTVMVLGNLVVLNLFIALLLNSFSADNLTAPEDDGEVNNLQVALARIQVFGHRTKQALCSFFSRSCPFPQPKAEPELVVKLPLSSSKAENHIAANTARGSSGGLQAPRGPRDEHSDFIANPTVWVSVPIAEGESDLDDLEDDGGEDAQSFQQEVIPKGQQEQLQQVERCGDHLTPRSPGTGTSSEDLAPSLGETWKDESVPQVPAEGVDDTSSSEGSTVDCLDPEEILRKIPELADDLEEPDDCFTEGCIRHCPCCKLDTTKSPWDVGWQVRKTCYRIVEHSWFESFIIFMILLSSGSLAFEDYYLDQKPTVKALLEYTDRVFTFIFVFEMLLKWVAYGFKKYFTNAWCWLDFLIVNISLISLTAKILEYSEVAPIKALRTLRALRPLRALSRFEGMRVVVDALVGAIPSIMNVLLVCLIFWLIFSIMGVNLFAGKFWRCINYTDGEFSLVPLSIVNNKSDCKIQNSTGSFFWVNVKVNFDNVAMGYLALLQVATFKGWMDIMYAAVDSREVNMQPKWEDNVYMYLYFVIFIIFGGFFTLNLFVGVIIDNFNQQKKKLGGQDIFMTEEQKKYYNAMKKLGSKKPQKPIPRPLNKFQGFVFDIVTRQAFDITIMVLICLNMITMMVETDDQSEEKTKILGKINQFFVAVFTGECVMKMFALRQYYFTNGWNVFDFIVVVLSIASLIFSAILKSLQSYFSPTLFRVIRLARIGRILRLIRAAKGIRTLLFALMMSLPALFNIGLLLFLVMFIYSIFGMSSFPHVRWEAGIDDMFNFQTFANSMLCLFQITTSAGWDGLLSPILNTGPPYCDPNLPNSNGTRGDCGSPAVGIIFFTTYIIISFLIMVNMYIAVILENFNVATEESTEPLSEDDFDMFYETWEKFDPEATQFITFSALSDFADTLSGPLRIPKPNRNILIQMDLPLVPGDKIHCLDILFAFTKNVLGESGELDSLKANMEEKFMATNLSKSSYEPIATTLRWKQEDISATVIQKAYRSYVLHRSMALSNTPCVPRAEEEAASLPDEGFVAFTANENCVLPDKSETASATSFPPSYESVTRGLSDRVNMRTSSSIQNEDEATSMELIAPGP
smiles,measurement,setting,value
CSCC[C@@H]1NC(=O)[C@H](Cc2ccc(O)cc2)NC(=O)[C@H](CCCNC(=N)N)NC(=O)[C@@H](NC(=O)[C@@H](N)CC(=O)O)CSSC[C@@H]2NC(=O)[C@@H]3CSSC[C@@H](C(=O)N[C@@H](C)C(=O)N[C@@H](Cc4c[nH]c5ccccc45)C(=O)N[C@@H](CC(=O)O)C(=O)N[C@@H](Cc4ccccc4)C(=O)N[C@H](C(=O)N[C@@H](Cc4ccccc4)C(=O)N[C@H](C(=O)O)[C@@H](C)O)[C@@H](C)O)NC(=O)[C@H](Cc4ccc(O)cc4)NC(=O)[C@H](CCCCN)NC(=O)[C@H](CCSC)NC(=O)[C@H](CCCCN)NC(=O)[C@H](CCCNC(=N)N)NC(=O)[C@H](CCCCN)NC(=O)[C@H](CSSC[C@H](NC(=O)[C@H](CC(=O)O)NC(=O)CNC(=O)[C@H](Cc4ccccc4)NC1=O)C(=O)N[C@@H](CCC(=O)O)C(=O)N[C@@H](CCCCN)C(=O)N[C@@H](CC(=O)O)C(=O)N[C@@H](CCC(=O)O)C(=O)N[C@@H](CC(=O)O)C(=O)N3)NC(=O)CNC(=O)[C@H](CC(C)C)NC(=O)[C@H](Cc1cnc[nH]1)NC(=O)[C@H](CCCCN)NC2=O [Pnc1a],IC50,[1],13.2 µM
same,IC50,[2],26.3 µM
same,pIC50 Nav1.6,[3],6.89±0.1 M
same,"voltage dependence of activation, V50",[4]; 0.3 nM,−28.94±0.66 mV
same,"voltage dependence of activation, V50",[4]; 10 nM,−4.40±2.2 mV
same,effect on the voltage dependence of fast inactivation,[4]; 100 nM,no effect
same,effect on the voltage dependence of slow inactivation,[4]; 100 nM,no effect
same,"voltage dependence of activation, V50",[4]; 100 nM,−3.82±0.8 mV
same,IC50,[5],47.9 µM
same,spontaneous pain behaviours evoked by OD1,"[6]; intraperitoneal 0.3, 1, 3 mg/kg, 15 min prior to OD1",concentration-dependently reversed; also recorded: dose-dependently reduced
same,spontaneous pain behaviours evoked by OD1,"[6]; intraplantar, co-injected with OD1, 100 nM, 300 nM, 1 μM",concentration-dependently reversed
